Values quoted from earlier work, collected in patent publication US20070231385A1, “Controlled Release Pharmaceutical Composition and a Process for Preparing the Same” (Lupin Limited, priority 2003, published 2007).

Conditions: background statement

- serum half-life: more than 25 hours
SMILES: Cc1ccnc2c1NC(=O)c1cccnc1N2C1CC1 [Nevaripine]
